The source of these data is patent publication US20100184699A1, “Peptide Derived From Prostate-Related Protein As Cancer Vaccine Candidate For Prostate Cancer Patient Who Is Positive For Hla-A3 Super-Type Allele Molecule” (priority 2005, published 2010).

Assay [1] has as its system C1R-A11, -A31 or -A33 cells pulsed with corresponding peptide. The assay is described as follows: Induction of peptide-specific CTLs from PBMCs (IFN-γ ELISA). It is filed as cell-based, human. In general terms: In an ELISA, binding on a coated surface is turned into a signal by an enzyme label.
The test system of assay [2] is peptide-specific IgG in plasma of prostate cancer patients and healthy donors. Briefly: Detection of peptide-specific IgG in plasma by ELISA. The format is binding, human. Particulars: for IgG reactive to peptide in plasma: 1:100-diluted plasma; for frequency of detection of peptide-reactive IgG: plasma of prostate cancer patients, compared within PSA, PAP or PSMA peptides.

Where “and” joins values, the source holds several entries; their conditions need not be identical. Equal values may be shown once.

Take “LYDMSLLKNR (PSA 100-109) [PSA-derived peptide]”: in assay [1], the “Total (positive / tested)” value was 1/13 and 3/9. For the same sequence, the “IgG reactive to peptide in plasma” value in assay [2] (Healthy donor 2, A3) is “+ (IgG reactive to a corresponding peptide was judged to be positive when a difference of the optical density (OD) in a 1:100-diluted plasma was more than 100)”; in assay [2] (Healthy donor 3, A31) it was “+ (IgG reactive to a corresponding peptide was judged to be positive when a difference of the optical density (OD) in a 1:100-diluted plasma was more than 100)”; in assay [2] (Healthy donor 4, A31), “+ (IgG reactive to a corresponding peptide was judged to be positive when a difference of the optical density (OD) in a 1:100-diluted plasma was more than 100)”; in assay [2] (Healthy donor 9, A11), “+ (IgG reactive to a corresponding peptide was judged to be positive when a difference of the optical density (OD) in a 1:100-diluted plasma was more than 100)”; in assay [2] (Prostate cancer patient 4, A31) it was “+ (IgG reactive to a corresponding peptide was judged to be positive when a difference of the optical density (OD) in a 1:100-diluted plasma was more than 100)”; in assay [2] (Prostate cancer patient 7, A11), “+ (IgG reactive to a corresponding peptide was judged to be positive when a difference of the optical density (OD) in a 1:100-diluted plasma was more than 100)”. Moreover, the “IgG reactive to peptide in plasma” value was “+ (IgG reactive to a corresponding peptide was judged to be positive when a difference of the optical density (OD) in a 1:100-diluted plasma was more than 100)” in assay [2] (Prostate cancer patient 9, A11); “+ (IgG reactive to a corresponding peptide was judged to be positive when a difference of the optical density (OD) in a 1:100-diluted plasma was more than 100)” in assay [2] (Prostate cancer patient 10, A11); “+ (IgG reactive to a corresponding peptide was judged to be positive when a difference of the optical density (OD) in a 1:100-diluted plasma was more than 100)” in assay [2] (Prostate cancer patient 13, A11); “+ (IgG reactive to a corresponding peptide was judged to be positive when a difference of the optical density (OD) in a 1:100-diluted plasma was more than 100)” in assay [2] (Prostate cancer patient 14, A33); “+ (IgG reactive to a corresponding peptide was judged to be positive when a difference of the optical density (OD) in a 1:100-diluted plasma was more than 100)” in assay [2] (Prostate cancer patient 19, A33). For the same sequence, the “IgG reactive to peptide in plasma, Total (positive/tested)” value in assay [2] (Healthy donors) is 4/9; in assay [2] (Prostate cancer patients), 7/20. In assay [2], the “frequency of detection of peptide-reactive IgG” value was “more frequently”.

Take “QPWQVLVASR (PSA 36-45) [PSA-derived peptide]”: the “Total (positive / tested)” value in assay [1] is 1/13 and 1/9. The “IgG reactive to peptide in plasma” value in assay [2] (Healthy donor 4, A31) is “+ (IgG reactive to a corresponding peptide was judged to be positive when a difference of the optical density (OD) in a 1:100-diluted plasma was more than 100)”; in assay [2] (Healthy donor 12, A31), “+ (IgG reactive to a corresponding peptide was judged to be positive when a difference of the optical density (OD) in a 1:100-diluted plasma was more than 100)”. The “IgG reactive to peptide in plasma, Total (positive/tested)” value in assay [2] (Healthy donors) is given as 2/8; in assay [2] (Prostate cancer patients) it was 0/20. The “frequency of detection of peptide-reactive IgG” value in assay [2] is reported as “less frequently”.
